{"source": "patent US11311568B2", "about": "“Therapeutic pharmaceutical composition for cancer including miRNA” (Purmx Therapeutics, Inc., priority 2017, dated 2022)", "key": {"[1]": {"test_system": "large intestine cancer cell strain HCT116 (p53 deletion)", "assay": "Screening in cancer cell strains, cell survival rate with PrestoBlue", "assay_type": "cell-based", "conditions": "Day 5 after transfection with RNAiMAX, compared with miR-34a-5p", "description": "(§1) The 349 types of aging induction miRNA (mirVana; Ambion) obtained from screening were transfected into various cancer cell strains (large intestine cancer cell strain HCT116 (p53 wildtype and p53 deletion), pancreatic cancer cell strains BxPC-3 and CFPAC-1, and tongue cancer cell strain HSC-4) with an auto dispenser Bravo (Agilent).\n(§2) Transfection was carried out with the following protocol.\n(§3) 1: To 70 μL of serum free medium (SFM) was added 0.35 μL of RNAiMAX (Invitrogen).\n(§4) 2: The solution from 1 was added to a 96-well plate (μ-plate; ibidi) with Bravo.\n(§5) 3: To 2 was added 0.7 μL of miRNA (Stock Conc. 200 nM) with Bravo, and this was mixed by pipetting.\n(§6) 4: This was incubated at room temperature for 20 minutes.\n(§7) 5: A cell suspension diluted to 3.5×10^4 cells/mL was dispensed at 70 μL each with Bravo.\n(§8) 6: This was incubated at 37° C. under 5% CO2 condition.\n(§9) Setting the day of transfection as Day 0, on Day 5 the cell survival rate was evaluated with PrestoBlue (Invitrogen). The operating protocol is shown below.\n(§10) 1. The medium was exchanged to a medium comprising PrestoBlue diluted 20-folds, and this was incubated at 37° C. for 1 hour. 2. The fluorescence value (Ex/Em=560 nm/590 nm) was measured with Enspire (Perkin Elmer).\n(§11) 3. The cell survival rate was determined by setting the fluorescence value obtained from the well with only the reagent as the background."}, "[2]": {"test_system": "large intestine cancer cell strain HCT116 (p53 wildtype)", "assay": "Screening in cancer cell strains, cell survival rate with PrestoBlue", "assay_type": "cell-based", "conditions": "Day 5 after transfection with RNAiMAX, compared with miR-34a-5p", "description": "as §1, §2, §3, §4, §5, §6, §7, §8, §9, §10, §11"}, "[3]": {"test_system": "pancreatic cancer cell strain BxPC-3", "assay": "Screening in cancer cell strains, cell survival rate with PrestoBlue", "assay_type": "cell-based", "conditions": "BxPC-3, Day 5 after transfection with RNAiMAX, compared with miR-34a-5p", "description": "as §1, §2, §3, §4, §5, §6, §7, §8, §9, §10, §11"}, "[4]": {"test_system": "pancreatic cancer cell strain CFPAC-1", "assay": "Screening in cancer cell strains, cell survival rate with PrestoBlue", "assay_type": "cell-based", "conditions": "CFPAC-1, Day 5 after transfection with RNAiMAX, compared with miR-34a-5p", "description": "as §1, §2, §3, §4, §5, §6, §7, §8, §9, §10, §11"}, "[5]": {"test_system": "tongue cancer cell strain HSC-4", "assay": "Screening in cancer cell strains, cell survival rate with PrestoBlue", "assay_type": "cell-based", "conditions": "HSC-4, Day 5 after transfection with RNAiMAX, compared with miR-34a-5p", "description": "as §1, §2, §3, §4, §5, §6, §7, §8, §9, §10, §11"}, "[6]": {"test_system": "breast cancer stem cell strain (MDA-MB231-luc-D3H2LN cells)", "assay": "Cell growth inhibition, cell count after transfection", "assay_type": "cell-based", "conditions": "final concentration 12.5 nM, four days after transfection, FIG. 10 top", "description": "miR-3140-3p was transfected in a highly metastatic cancer cell strain of breast cancer (MDA-MB231-luc-D3H2LN cells), and cell proliferation was observed. […] Transfection was carried out with the following protocol.\n1: To a 35 mm dish were added 500 μL of serum free medium (SFM) and 5 μL of RNAiMAX (Invitrogen).\n2: To the solution from 1 was added 12.5 μL each of miR-Control or miR-3140-3p, miR-22-3p, and miR-34a-5p (stock conc. 2 μM) (final concentration 12.5 nM).\n3: This was incubated at room temperature for 20 minutes.\n4: 1.5 mL of a cell suspension diluted to 6.7×10^4 cells/mL was added to the 35 mm dish.\n5: This was incubated at 37° C. under 5% CO2 condition.\n6: The cells were counted four days after transfection."}, "[7]": {"test_system": "breast cancer stem cell strain (MDA-MB231-luc-D3H2LN cells)", "assay": "Annexin V apoptosis marker expression by FACS", "assay_type": "cell-based", "conditions": "six days after transfection, FIG. 10 bottom", "description": "Moreover, by the protocol below, the expression of apoptosis marker Annexin V in breast cancer cells transfected with miR-3140-3p was analyzed.\n1: Transfection of miR-3140-3p was performed with a protocol similar to that described above.\n2: Six days after transfection, cells were recovered together with the supernatant.\n3: Samples for FACS were prepared according to the protocol of the Annexin V assay kit.\n4: Cells stained by Annexin V-FITC were stained with an antibody against cancer stem cell marker CD44 (eBioScience).\n5: The prepared samples were analyzed with Cell Sorter (SONY)."}, "[8]": {"test_system": "malignant pleural mesothelioma cell strain EHMES-10", "assay": "Comparison of antitumor effect with cisplatin in vivo, pleural cavity transplantation", "set-up": "species or system mice (C-B-17/Icr-scid/scid Jcl)", "conditions": "miRNA/A6K in pleural cavity versus cisplatin 6 mg/kg intraperitoneal, EHMES-10 in pleural cavity, FIGS. 30-33", "text": "In order to investigate the relative superiority of antitumor effect of miR-3140-3p, the tumor suppression effect of cisplatin which is the first-line drug of malignant pleural mesothelioma and the tumor suppression effect of miR-3140-3p were compared in vivo.\nSix weeks-old male mice (C-B-17/Icr-scid/scid Jcl) were used as mice. Malignant pleural mesothelioma cell strain EHMES-10 which expresses the luciferase gene was used as the tumor cell.\nThe protocol is shown below.\n1: Mice were intraperitoneally administered 0.1 mL per 10 g of body weight of a mixed anesthetic drug of medetomidine hydrochloride, midazolam, and butorphanol tartrate.\n2: After anesthesia, mouse chest hair was shaved, and an incision was made in the epidermis with scissors.\n3: In the mouse pleural cavity 100 μL of tumor cells (3×10^7 cells/mL) was transplanted with a 27 G syringe for insulin.\n4: Four days after transplantation, imaging of tumor cells was performed with IVIS Spectrum CT In vivo Imaging System.\n5: After imaging, grouping was performed with successfully transplanted mice.\n6: Mice were intraperitoneally administered 0.1 mL per 10 g of body weight of a mixed anesthetic drug of medetomidine hydrochloride, midazolam, and butorphanol tartrate to anesthetize the mice. […]"}}}
{"substance": "miR-3140-3p: Mature-miRNA, AGCUUUUGGGAAUUCAGGUAGU (SEQ ID NO. 2) (listed as RNA, chemistry not given here; listed as Homo sapiens)", "values": [{"measurement": "suppression of cell proliferation (cell survival rate, PrestoBlue)", "setting": "[1]", "result": "suppress cell proliferation more significantly than miR-34-5p"}, {"measurement": "suppression of cell proliferation (cell survival rate, PrestoBlue)", "setting": "[2]", "result": "suppress cell proliferation more significantly than miR-34-5p"}, {"measurement": "suppression of cell proliferation (cell survival rate, PrestoBlue)", "setting": "[3]", "result": "suppress cell proliferation more significantly than miR-34-5p"}, {"measurement": "suppression of cell proliferation (cell survival rate, PrestoBlue)", "setting": "[4]", "result": "suppress cell proliferation more significantly than miR-34-5p"}, {"measurement": "suppression of cell proliferation (cell survival rate, PrestoBlue)", "setting": "[5]", "result": "suppress cell proliferation more significantly than miR-34-5p"}, {"measurement": "cell growth inhibition effect (cell count)", "setting": "[6]", "result": "extremely high cell growth inhibition effect"}, {"measurement": "apoptosis marker Annexin V positive", "setting": "[7]", "result": 96.97, "unit": "%"}, {"measurement": "antitumor effect (tumor suppression, survival rates) compared with cisplatin", "setting": "[8]", "result": "equivalent or higher compared to cisplatin"}]}
